The source of these data is patent publication US20240208957A1, “TRIAZINE DERIVATIVE AS REVERSIBLE AND IRREVERSIBLE COVALENT INHIBITORS OF PI3K” (UNIVERSITÄT BASEL, priority 2021, published 2024).

SMILES strings stand for the structures.

The nature of series [1]: Intrinsic reactivity of the inhibitors with βME measured with HPLC. Format: physicochemical. The settings on record: 1 mM inhibitor + 600 mM βME, n = 3, mean. The source says: E˜I→EI • ii) off-target reactions with ubiquitous sulfhydryls (S) and other nucleophils present in physiologic environments such as cells and body fluids are driven by the intrinsic reactivity of the warhead that is defined by Kchem driving the conversion of S and I to form the sulfhydryl-adduct (SI) [table]

Series [2] deals with pSer473 of PKB/Akt in SKOV3 cells. Description: In-Cell Western cellular PI3K signaling, pSer473 of PKB/Akt in SKOV3 cells. The class given is cell-based. The settings on record: Homo sapiens, SK-OV-3; SKOV3 cells; mean of 2 or 3 independent measurements; read-out: IC50 pPKB (S473) SKOV3. As for the experimental part: Protein phosphorylation was detected as follows: pSer473 of PKB/Akt with rabbit polyclonal antibody from Cell Signaling Technology (CST) (#4058) by In-Cell Western assays, where 1.2×10^4 SKOV3 cells/well in 96-well plates were plated (Cell Carrier, PerkinElmer) for 24 hours (37° C., 5% CO2), as described in Ref.^21.

For series [3] the following is noted: background statement; cited from earlier work.
For series [4] the following is noted: background statement; cited from earlier work. The source holds these as a separate data set.

`CC(C)=CC(=O)CCC(=O)N1CCN(Cc2cc3nc(-c4cccc5[nH]ncc45)nc(N4CCOCC4)c3s2)CC1` [CNX-1351, 1-[4-[[2-(1H-indazol-4-yl)-4-(4-morpholinyl)thieno[3,2-d]pyrimidin-6-yl]methyl]-1-piperazinyl]-6-methyl-5-heptene-1,4-dione, reference compound]: the kchem in series [1] came out at 0.000222 M⁻¹ s⁻¹. Besides, in series [2], the IC50 was 164 nM. Moreover, the aqueous solubility entry in series [3] is reported as “low”. Further, the metabolic stability result in series [4] is “metabolic instability”.
